From US11993573B2, “Chromane-substituted, tetrahydroquinoline-substituted and thiochromane-substituted heteroarotinoids as anti-cancer agents” (THE BOARD OF REGENTS FOR OKLAHOMA STATE UNIVERSITY, priority 2018, dated 2024)
Like-named read-outs stand apart in the source and are kept apart here.

How the values were obtained:
[1] = test system: human ovarian cancer cell line A2780; experiment: Growth inhibition assay (CellTiter 96 Non-Rad Cell Proliferation Assay); type: cell-based; settings: Homo sapiens
Method: To illustrate the general activity of the compounds inhibiting growth of human […] ovarian cancer cells, selected compounds were synthesized and evaluated. The compounds were dissolved in DMSO at a concentration of 0.01 M. The human ovarian cancer cell line A2780 was plated in 96-well tissue culture dishes at a concentration of 3000 cells per well in RPMI medium supplemented with 10% fetal bovine serum and a mixture of antibiotics and antimycotics. The next day, the cultures were treated in triplicate with compound concentrations ranging from 2 μM to 8 μM increments. For compound 12, additional experiments were performed with concentrations of 10 μM and a series of two-fold dilutions to 156 nM. Control cultures were treated with DMSO solvent only. After 72 h of incubation, the […] 96® Non-Rad Cell Proliferation Assay (Promega) was used to quantify the remaining metabolically living cells. After subtracting blank values, the optical density (OD) readouts of the assay for the treated cultures were normalized with the average OD of the control cultures. For each compound, the experiment was repeated at least once, resulting in a minimum of 6 dose-response curves. For SHetA2, 24 response curves were available for statistical fitting parameters. A custom program was written in GNU Octave, a free software compatible with Matlab, to fit the dose-response curves with a four-parameter sigmoid function, extracting the IC50 and efficacy (the maximal % growth inhibition) parameters.
To illustrate the useful biological activity of these chroman-substituted and tetrahydroquinoline-substituted heteroarotinoids, the compounds were screened against human […] ovarian cancer cells.

[2] = test system: 60 cancer cell lines available from the National Cancer Institute; settings: SHetA2, background; cited from earlier work
[3] = SHetA2, background; cited from earlier work
[4] = A2780, 72 h, Table 2, tetrahydroquinoline-containing members
[5] = A2780, 72 h, Table 2, maximal % growth inhibition, A2780, 72 h, read-out: Efficacy

melting point [°C] | IC50 [1, 4] [µM] | SMILES | Emax [1, 5] [%] | also measured
83 to 85 | 5.4 | CN1c2ccc(NC(=S)Nc3ccc(OC(F)(F)F)cc3)cc2C(C)(C)C(=O)C1(C)C [Compound 11f, 1-(1,2,2,4,4-Pentamethyl-3-oxo-1,2,3,4-tetrahydroquinolin-6-yl)-3-(4-(trifluoromethoxy)phenyl)thiourea] | 76 | –
151 to 153 | 4.49 | CN1c2ccc(NC(=S)Nc3ccc([N+](=O)[O-])cc3)cc2C(C)(C)CC1(C)C [Compound 12, 3-(1,2,2,4,4-Pentamethyl-1,2,3,4-tetrahydroquinolin-6-yl)-1-(4-nitrophenyl)thiourea] | 91.7 | –
215 to 217 | 8.4 | CN1c2ccc(NC(=O)Nc3ccc([N+](=O)[O-])cc3)cc2C(C)(C)C(O)C1(C)C (centres unmarked) [Compound 13a, 1-(3-Hydroxy-1,2,2,4,4-pentamethyl-1,2,3,4-tetrahydroquinolin-6-yl)-3-(4-nitrophenyl)urea] | 26 | –
213 to 215 | 6.7 | CN1c2ccc(NC(=O)Nc3ccc(C(F)(F)F)cc3)cc2C(C)(C)C(O)C1(C)C (centres unmarked) [Compound 13c, 1-(3-Hydroxy-1,2,2,4,4-pentamethyl-1,2,3,4-tetrahydroquinolin-6-yl)-3-(4-(trifluoromethyl)phenyl)urea] | 25 | –
105 to 107 | 7.6 | CN1c2ccc(NC(=S)Nc3ccc(C(F)(F)F)cc3)cc2C(C)(C)C(O)C1(C)C (centres unmarked) [Compound 13d, 1-(3-Hydroxy-1,2,2,4,4-pentamethyl-1,2,3,4-tetrahydroquinolin-6-yl)-3-(4-(trifluoromethyl)phenyl)thiourea] | 56.1 | –
188 to 189 | 7.8 | CN1c2ccc(NC(=O)Nc3ccc(OC(F)(F)F)cc3)cc2C(C)(C)C(O)C1(C)C (centres unmarked) [Compound 13e, 1-(3-Hydroxy-1,2,2,4,4-pentamethyl-1,2,3,4-tetrahydroquinolin-6-yl)-3-(4-(trifluoromethoxy)phenyl)urea] | 23.6 | –
97 to 99 | 13.1 | CN1c2ccc(NC(=S)Nc3ccc(OC(F)(F)F)cc3)cc2C(C)(C)C(O)C1(C)C (centres unmarked) [Compound 13f, 1-(3-Hydroxy-1,2,2,4,4-pentamethyl-1,2,3,4-tetrahydroquinolin-6-yl)-3-(4-(trifluoromethoxy)phenyl)thiourea] | 15.3 | –
– | 3.17 | CC1(C)CC(C)(C)c2cc(NC(=S)Nc3ccc([N+](=O)[O-])cc3)ccc2S1 [SHetA2, reference compound] | 84.3 | growth inhibition of cancer cell lines [2]: inhibits the growth of all 60 cancer cell lines; birth defects in animal studies [3]: does not cause birth defects; skin irritation [3]: no skin irritation; toxicity toward normal tissues [3]: essentially no toxicity toward normal tissues; IC50 ([1]; A2780, 72 h, Table 1, chroman-containing series): 3.17 µM; Emax ([1]; A2780, 72 h, Table 1, maximal % growth inhibition, A2780, 72 h, read-out: Efficacy): 84.3%; IC50 ([1]; A2780, Table 3, 14 series (thiochroman), A2780): 3.17 ± 0.1 µM; Emax ([1]; A2780, Table 3, 14 series, A2780, read-out: % Efficacy): 84.3 ± 0.7%; IC50 ([1]; A2780, running text, A2780): 3 µM
